Test systems include HT-29; COLO 205; SW-620; A549; SK-OV-3; NCI-H23; SNB-19; OVCAR-5; NCI-H460; UACC-257; CCRF-CEM; TK-10; U-251; NCI-H226; HCC 2998; MDA-MB-435; MCF7; MDA-N.
Common to all, as to test: NCI-60 cell line screen, 48 h

The structures appear in SMILES notation.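 These data come from cells grown in 96-well plates and exposed to compound for 48 hours at five concentrations. GI50 is the concentration that inhibits growth by half.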 Activity calls are given as the source filed them. Cut-off read from the data, not from the text of the source: active = GI50 up to about 1.1 µM and inactive = higher.

Consider `O=C1OCCC1(Cc1ccc(Cl)cc1)Cc1ccc(Cl)cc1`, for which the GI50 is > 100 µM (inactive) in the experiment on HT-29; > 100 µM (inactive) in the experiment on COLO 205; > 100 µM (inactive) in the experiment on SW-620; > 100 µM (inactive) with A549; > 100 µM (inactive) in the experiment with SK-OV-3; 53.2 µM (inactive) in the experiment on NCI-H23. Besides, the GI50 in the experiment with SNB-19 is 30 µM (inactive); in the experiment on OVCAR-5 it was > 100 µM (inactive); with NCI-H460, > 100 µM (inactive); with UACC-257 it was > 100 µM (inactive); with CCRF-CEM, > 100 µM (inactive); with TK-10, 46.8 µM (inactive). Moreover, the values for the GI50 in the experiment on U-251 and in the experiment on NCI-H226 were 52.1 µM (inactive) and > 100 µM (inactive), respectively.

For `Cn1c2c(c3ccccc31)C1CCCCC1C1C(=O)NC(=O)C21` (configuration not stated), the GI50 in the experiment on HT-29 is 33.1 µM (inactive); in the experiment with COLO 205, 39.9 µM (inactive); with SW-620 it was 52 µM (inactive); in the experiment on A549, 43.3 µM (inactive); in the experiment on SK-OV-3 it was > 100 µM (inactive); in the experiment on NCI-H23, > 100 µM (inactive). For the same molecule, the GI50 in the experiment on HCC 2998 was 52.2 µM (inactive); with SNB-19, > 100 µM (inactive); in the experiment with OVCAR-5, > 100 µM (inactive); in the experiment with NCI-H460, 34.8 µM (inactive); in the experiment with CCRF-CEM it was 36.6 µM (inactive); in the experiment on TK-10 it was > 100 µM (inactive). Also, the results for the GI50 with U-251 and in the experiment on NCI-H226 were > 100 µM (inactive) and 21.6 µM (inactive), respectively.

For `COC(=O)C12C(=O)O[C@H](C)C1(O)C(C)C(=O)N2C` (some centres not stated), the GI50 with HT-29, in the experiment on COLO 205, in the experiment on SK-OV-3, in the experiment on NCI-H23, with HCC 2998 and in the experiment on SNB-19 was > 100 µM (inactive) each time. Further, the GI50 in the experiment with OVCAR-5, in the experiment on TK-10 and in the experiment with U-251 was > 100 µM (inactive) each time.

`CC(C)(C)[Si](C)(C)OCC1CCC(n2cnc3c(NC(=O)c4ccccc4)ncnc32)O1` (configuration not stated): the GI50 in the experiment on HT-29 was 19.1 µM (inactive); in the experiment on COLO 205 it was 18.5 µM (inactive); in the experiment with SW-620, 20 µM (inactive); in the experiment on A549, 19 µM (inactive); in the experiment on SK-OV-3 it was 20 µM (inactive); in the experiment with NCI-H23 it was 18.4 µM (inactive). Further, the GI50 in the experiment with HCC 2998 was 19.5 µM (inactive); in the experiment with SNB-19 it was 18.9 µM (inactive); with OVCAR-5 it was 16.7 µM (inactive); in the experiment with NCI-H460, 18 µM (inactive); in the experiment with MDA-MB-435 it was 15.8 µM (inactive); in the experiment on MCF7, 23.9 µM (inactive). For the same molecule, the GI50 with UACC-257 was 18.7 µM (inactive); in the experiment on CCRF-CEM, 22 µM (inactive); in the experiment on TK-10, 20.5 µM (inactive); with MDA-N it was 17.2 µM (inactive); in the experiment on U-251, 18.2 µM (inactive); in the experiment on NCI-H226, 15.1 µM (inactive).

For `COc1cc2c(NCCN(C)C)nc3c4cc5c(cc4ccc3c2cc1OC)OCO5`, the GI50 was 3.37 µM (inactive) in the experiment with HT-29; 2.81 µM (inactive) in the experiment on COLO 205; 3.36 µM (inactive) in the experiment with SW-620; 2.75 µM (inactive) in the experiment with A549; 4.78 µM (inactive) with SK-OV-3; 3.08 µM (inactive) with NCI-H23. In addition, the GI50 is 4.59 µM (inactive) in the experiment with HCC 2998; 3.56 µM (inactive) with SNB-19; 3.42 µM (inactive) in the experiment on OVCAR-5; 0.193 µM (active) with NCI-H460; 3.5 µM (inactive) with MDA-MB-435; 1.84 µM (inactive) in the experiment on MCF7. Moreover, the GI50 in the experiment with UACC-257 was 4.1 µM (inactive); in the experiment on CCRF-CEM, 1.32 µM (inactive); in the experiment on TK-10, 2.72 µM (inactive); in the experiment on MDA-N, 3.57 µM (inactive); with U-251 it was 4.16 µM (inactive); in the experiment on NCI-H226 it was 3.7 µM (inactive).

Take `c1ccc2c(c1)c1c(n2CCOCCN2CCCCC2)CCCC1`: the GI50 was 11.6 µM (inactive) in the experiment on HT-29; 11.1 µM (inactive) in the experiment on COLO 205; 17.3 µM (inactive) with SW-620; 15.1 µM (inactive) in the experiment with A549; 18.7 µM (inactive) with SK-OV-3; 15.2 µM (inactive) in the experiment with NCI-H23. Besides, the GI50 is 11.5 µM (inactive) with HCC 2998; 12.3 µM (inactive) in the experiment with OVCAR-5; 11.9 µM (inactive) with NCI-H460; 12.8 µM (inactive) in the experiment on MDA-MB-435; 13.7 µM (inactive) in the experiment with MCF7; > 10 µM (inactive) with UACC-257. Further, the GI50 in the experiment on CCRF-CEM was 12.4 µM (inactive); in the experiment on TK-10, 14.3 µM (inactive); in the experiment on MDA-N, 14.8 µM (inactive); with U-251 it was 16.9 µM (inactive); in the experiment with NCI-H226, 21.7 µM (inactive).

`O=c1c2cc([N+](=O)[O-])ccc2n2n1CCCC2`: the GI50 in the experiment on HT-29, in the experiment with COLO 205, in the experiment on SW-620, in the experiment with A549, in the experiment with SK-OV-3 and in the experiment on NCI-H23 was > 100 µM (inactive) throughout. In addition, the GI50 with HCC 2998, in the experiment on SNB-19, in the experiment with OVCAR-5, with NCI-H460, with MDA-MB-435 and in the experiment with UACC-257 was > 100 µM (inactive) each time. In addition, the GI50 is > 100 µM (inactive) in the experiment with CCRF-CEM; 24.2 µM (inactive) in the experiment on TK-10; > 100 µM (inactive) with MDA-N; > 100 µM (inactive) in the experiment with U-251; > 100 µM (inactive) with NCI-H226.

On to `O=C(Cc1ccccc1)N/N=C(/c1nc2ccc([N+](=O)[O-])cc2nc1O)C(O)c1ccco1` (configuration not stated), for which the GI50 with HT-29, in the experiment on COLO 205, in the experiment on SW-620, in the experiment on A549, with SK-OV-3 and in the experiment with NCI-H23 was > 100 µM (inactive) each time. Besides, the GI50 in the experiment on HCC 2998 was > 100 µM (inactive); with OVCAR-5, > 100 µM (inactive); with NCI-H460, > 100 µM (inactive); in the experiment with UACC-257, > 100 µM (inactive); in the experiment on CCRF-CEM it was 43.7 µM (inactive); with TK-10, > 100 µM (inactive). The GI50 in the experiment with U-251 and in the experiment on NCI-H226 was > 100 µM (inactive) each time.

On to `CN(C)C1(C(=O)O)CC1`, for which the GI50 in the experiment with HT-29, in the experiment on SW-620, in the experiment on A549, in the experiment on NCI-H23, in the experiment with HCC 2998 and in the experiment with SNB-19 was > 100 µM (inactive) in each case. In addition, the GI50 in the experiment with OVCAR-5, with NCI-H460, in the experiment on MDA-MB-435, with MCF7, in the experiment on UACC-257 and with CCRF-CEM was > 100 µM (inactive) in each case. The GI50 in the experiment with TK-10, with MDA-N, with U-251 and in the experiment with NCI-H226 was > 100 µM (inactive) each time.
